# Data published in patent publication US20240408219A1, “BICYCLIC PEPTIDE LIGAND DRUG CONJUGATES” (priority 2021, published 2024).
# Several values for one entry are separate records, joined by “and”; a condition that tells them apart may be missing. Identical values can stand only once. Numbered stars: 1 amine (or outer) side, 2 acyl side, 3 side chain; on linkers, the order of the positions; unused ones are H or OH. Bridge positions count the residues as written; N and C are the ends. Square brackets hold non-standard residues; d marks the D form. Ends that are not written are not given here. 1Nal = N[C@@H](Cc1cccc2ccccc12)C(=O)O; TBMB = c1c(C[*:1])cc(C[*:3])cc1C[*:2]; Tle = CC(C)(C)[C@H](N)C(=O)O; βAla = NCCC(=O)O; Sar = CNCC(=O)O
# System: HT1080 xenograft
# Experiment: In vivo efficacy test in HT1080 xenograft in BALB/c nude mice (Example 1)
# Protocol: [table] • Species: Mus Musculus • Strain: […] Shanghai LC Laboratory Animal Co., LTD. […] The tumor cells were routinely subcultured twice weekly by trypsin-EDTA treatment. The cells growing in an exponential growth phase were harvested and counted for tumor inoculation. […] The test article administration and the animal numbers in each group were shown in the experimental design table. […] All the procedures related to animal handling, care and the treatment in the study were performed according to the guidelines approved by the Institutional Animal Care and Use Committee (IACUC) of WuXi AppTec, following the guidance of the Association for Assessment and Accreditation of Laboratory Animal Care (AAALAC). At the time of routine monitoring, the animals were daily checked for any effects of tumor growth and treatments on normal behavior such as mobility, food and water consumption (by looking only), body weight gain/loss, eye/hair matting and any other abnormal effect as stated in the protocol. Death and observed clinical signs were recorded on the basis of the numbers of animals within each subset. The major endpoint was to see if the tumor growth could be delayed or mice could be cured. […] The tumor size was then used for calculations of T/C value. The T/C value (in percent) is an indication of antitumor effectiveness; T and C are the mean volumes of the treated and control groups, respectively, on a given day. TGI was calculated for each group using the formula: […] Ti is the average tumor volume of a treatment group on a given day, TO is the average tumor volume of the treatment group on the day of treatment start, Vi is the average tumor volume of the vehicle control group on the same day with Ti, and VO is the average tumor volume of the vehicle group on the day of treatment start. Summary statistics, including mean and the standard error of the mean (SEM), are provided for the tumor volume of each group at each time point. Statistical analysis of difference in tumor volume among the groups was conducted on the data obtained at the best therapeutic time point after the final dose. A one-way ANOVA was performed to compare tumor volume among groups, and when a significant F-statistics (a ratio of treatment variance to the error variance) was obtained, comparisons between groups were carried out with Games-Howell test. All data were analyzed using Prism.
substance,measurement,setting,value
BT17BDC70: Reference bicyclic peptide drug conjugate (Tet-MMAE); BICY comprises βAla-Sar10-A-(SEQ ID NO: 1) ([βAla][Sar][Sar][Sar][Sar][Sar][Sar][Sar][Sar][Sar][Sar]AC[dA]NE[1Nal][dA]CEDFYD[Tle]C-NH2; linker 13-19-26 via TBMB; also: Tet-MMAE conjugate),Antitumor activity (in words),0.1 mg/kg biw,did not produce significant antitumor activity
same,Antitumor activity (in words),0.3 mg/kg biw,did not produce significant antitumor activity
same,Tumor volume (mean ± SEM),"0.1 mpk iv biw, day 0 after the start of treatment",170 ± 21 mm^3
same,Tumor volume (mean ± SEM),"0.1 mpk iv biw, day 2",400 ± 45 mm^3
same,Tumor volume (mean ± SEM),"0.1 mpk iv biw, day 4",557 ± 23 mm^3
same,Tumor volume (mean ± SEM),"0.1 mpk iv biw, day 7",1017 ± 180 mm^3
same,Tumor volume (mean ± SEM),"0.1 mpk iv biw, day 9",1102 ± 295 mm^3
same,Tumor volume (mean ± SEM),"0.1 mpk iv biw, day 11",1133 ± 203 mm^3
same,T/C,"0.1 mpk iv biw, day 14",129.9%
same,TGI,"0.1 mpk iv biw, day 14",−36.3%
same,Tumor volume (mean ± SEM),"0.1 mpk iv biw, day 14",1315 mm^3 and 1315 ± 287 mm^3
same,Tumor volume (mean ± SEM),"0.3 mpk iv biw, day 0 after the start of treatment",170 ± 27 mm^3
same,Tumor volume (mean ± SEM),"0.3 mpk iv biw, day 2",371 ± 63 mm^3
same,Tumor volume (mean ± SEM),"0.3 mpk iv biw, day 4",501 ± 91 mm^3
same,Tumor volume (mean ± SEM),"0.3 mpk iv biw, day 7",703 ± 69 mm^3
same,Tumor volume (mean ± SEM),"0.3 mpk iv biw, day 9",695 ± 60 mm^3
same,Tumor volume (mean ± SEM),"0.3 mpk iv biw, day 11",745 ± 60 mm^3
same,T/C,"0.3 mpk iv biw, day 14",89.2%
same,TGI,"0.3 mpk iv biw, day 14",12.8%
same,Tumor volume (mean ± SEM),"0.3 mpk iv biw, day 14",903 mm^3 and 903 ± 67 mm^3
same,Antitumor activity (in words),over all doses tested,did not produce significant antitumor activity
